Experimental data taken from ChEMBL document CHEMBL2074428, “New alpha(1)-adrenoceptor antagonists derived from the antipsychotic sertindole - carbon-11 labelling and pet examination of brain uptake in the cynomolgus monkey” (Nucl Med Biol, 2004).

Target: ATP-dependent translocase ABCB1 (Homo sapiens, UniProt P08183)
Assay: TP_TRANSPORTER: transepithelial transport in Caco2 cells
Type: functional, cell-based
Settings: caco-2

ATP-dependent translocase ABCB1, sequence (P08183 whole entry): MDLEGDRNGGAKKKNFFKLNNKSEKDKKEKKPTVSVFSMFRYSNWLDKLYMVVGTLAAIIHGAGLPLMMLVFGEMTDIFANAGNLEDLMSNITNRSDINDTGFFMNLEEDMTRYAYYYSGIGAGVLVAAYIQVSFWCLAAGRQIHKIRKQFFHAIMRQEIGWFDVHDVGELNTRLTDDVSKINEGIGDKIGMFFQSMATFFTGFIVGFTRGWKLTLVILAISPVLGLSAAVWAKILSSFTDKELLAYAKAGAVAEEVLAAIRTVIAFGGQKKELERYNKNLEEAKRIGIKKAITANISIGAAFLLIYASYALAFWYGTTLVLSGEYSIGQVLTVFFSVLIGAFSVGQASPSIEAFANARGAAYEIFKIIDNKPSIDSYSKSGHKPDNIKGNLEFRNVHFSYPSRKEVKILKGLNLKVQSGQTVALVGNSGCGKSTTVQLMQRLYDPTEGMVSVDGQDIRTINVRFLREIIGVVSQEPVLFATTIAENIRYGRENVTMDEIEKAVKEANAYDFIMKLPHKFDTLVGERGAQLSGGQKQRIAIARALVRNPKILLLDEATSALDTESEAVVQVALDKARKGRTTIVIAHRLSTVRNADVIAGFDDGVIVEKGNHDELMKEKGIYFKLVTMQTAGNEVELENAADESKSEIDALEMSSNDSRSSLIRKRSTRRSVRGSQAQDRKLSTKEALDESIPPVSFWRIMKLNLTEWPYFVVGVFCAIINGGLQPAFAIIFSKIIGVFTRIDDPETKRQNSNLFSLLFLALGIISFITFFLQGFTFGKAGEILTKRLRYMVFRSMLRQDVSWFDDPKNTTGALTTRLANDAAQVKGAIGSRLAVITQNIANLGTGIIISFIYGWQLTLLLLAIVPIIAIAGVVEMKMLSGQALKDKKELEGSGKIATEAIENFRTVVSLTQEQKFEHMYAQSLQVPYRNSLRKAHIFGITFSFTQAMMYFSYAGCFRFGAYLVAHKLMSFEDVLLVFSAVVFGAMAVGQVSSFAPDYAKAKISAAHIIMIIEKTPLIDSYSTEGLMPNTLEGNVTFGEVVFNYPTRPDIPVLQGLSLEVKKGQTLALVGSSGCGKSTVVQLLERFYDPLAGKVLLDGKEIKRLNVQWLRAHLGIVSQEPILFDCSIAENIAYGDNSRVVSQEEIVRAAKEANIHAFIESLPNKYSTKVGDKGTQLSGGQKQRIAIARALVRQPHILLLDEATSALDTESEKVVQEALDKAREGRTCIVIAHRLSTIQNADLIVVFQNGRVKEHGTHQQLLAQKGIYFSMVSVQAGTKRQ

Activity | Structure (SMILES)
substrate [+] | [11CH3]n1nnc(-c2ccc3c(c2)c(C2CCN(CCN4CCNC4=O)CC2)cn3-c2ccc(F)cc2)n1
substrate [+] | [11CH3]n1cc(-c2ccc3c(c2)c(C2CCN(CCN4CCNC4=O)CC2)cn3-c2ccc(F)cc2)nn1
